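Grown in 96-well plates, cells were treated for 48 hours with each compound at five concentrations. Insufficient inhibition: endpoint recorded as highest concentration tested. Abbreviation: GI50, concentration required for 50% inhibition of growth.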 Activity calls are given as the source filed them. Cut-off read from the data, not from the text of the source: active = GI50 up to about 1.1 µM and inactive = higher.

Some test systems named below: K562; SNB-19; Hs-578T; HL-60; MDA-MB-231; RXF 393; SF-295; DU-145; A498; MOLT-4; KM12; NCI-H226; OVCAR-5; UACC-257; HCC 2998; ACHN; T47D; RPMI-8226; U-251; SF-539.
Experiment in all cases: NCI-60 cell line screen, 48 h

For the compound `CCN(CC)c1ccc(C2NC(=O)c3ccccc3N2)cc1` (stereo not given), the GI50 in the assay on K562 is 1.27 µM (inactive); in the assay on SNB-19, 17.1 µM (inactive); with Hs-578T it was 9.64 µM (inactive); in the assay on HL-60, 0.522 µM (active); with MDA-MB-231, 1.88 µM (inactive); in the assay with RXF 393 it was 7.52 µM (inactive). The GI50 was 3.01 µM (inactive) in the assay on SF-295; 1.48 µM (inactive) in the assay with DU-145; 4.95 µM (inactive) in the assay with A498; 3.55 µM (inactive) in the assay with MOLT-4; 2.15 µM (inactive) with KM12; 2.98 µM (inactive) with NCI-H226. The GI50 was > 22 µM (inactive) in the assay with OVCAR-5; > 100 µM (inactive) with UACC-257; 2.19 µM (inactive) in the assay on HCC 2998; 7.03 µM (inactive) in the assay on ACHN; > 100 µM (inactive) with T47D; 3.37 µM (inactive) in the assay with RPMI-8226. For the same compound, the GI50 is 4.34 µM (inactive) in the assay on U-251 and 2.71 µM (inactive) in the assay with SF-539.

As to `CSc1c(CC(=O)Nc2ccc(Cl)cc2)n(Cc2ccccc2)c2ccccc12`, the GI50 with K562 is 28 µM (inactive); in the assay on SNB-19 it was 46.9 µM (inactive); with Hs-578T, 14.4 µM (inactive); with HL-60 it was > 100 µM (inactive); in the assay on MDA-MB-231 it was 14.8 µM (inactive); with RXF 393, 12.8 µM (inactive). Further, the GI50 is 62.7 µM (inactive) with SF-295; 38.5 µM (inactive) in the assay with DU-145; 8.26 µM (inactive) in the assay with A498; 43.1 µM (inactive) in the assay on MOLT-4; > 100 µM (inactive) in the assay on KM12; 20.8 µM (inactive) in the assay with NCI-H226. Also, the GI50 in the assay on OVCAR-5 was 29.6 µM (inactive); with UACC-257, 24.8 µM (inactive); in the assay on HCC 2998, 19.5 µM (inactive); in the assay on ACHN, 24.7 µM (inactive); in the assay on T47D, 12.1 µM (inactive); in the assay with RPMI-8226, 67.5 µM (inactive). For the same compound, the GI50 in the assay on U-251 was 11.6 µM (inactive); with SF-539, 3 µM (inactive).

On to `COc1cccc(Nc2nc(N)nc(N)c2N=O)c1`, for which the GI50 in the assay with K562 is 31.3 µM (inactive); in the assay with SNB-19, 38.6 µM (inactive); with Hs-578T, 14.5 µM (inactive); in the assay with HL-60, 19.1 µM (inactive); with MDA-MB-231, 28.5 µM (inactive); in the assay with RXF 393 it was 28.6 µM (inactive). Further, the GI50 is 27 µM (inactive) with SF-295; 13.2 µM (inactive) with DU-145; 21.7 µM (inactive) in the assay with A498; 7.24 µM (inactive) in the assay on MOLT-4; 29.1 µM (inactive) in the assay with KM12; 22.5 µM (inactive) with NCI-H226. Moreover, the GI50 in the assay with OVCAR-5 is 37.8 µM (inactive); in the assay on UACC-257, 21.3 µM (inactive); in the assay on HCC 2998, 17.4 µM (inactive); with ACHN, 17.3 µM (inactive); with T47D, 2.12 µM (inactive); with RPMI-8226, 16.9 µM (inactive). Besides, the GI50 with U-251 was 31.8 µM (inactive); with SF-539, 15.3 µM (inactive).

As for `CCOC(=O)c1sc2c(c1OC(=O)c1ccccc1)c(=O)n(-c1ccccc1)c(=S)n2-c1ccccc1`, the GI50 in the assay on K562 is 28.4 µM (inactive); in the assay on SNB-19 it was 40.3 µM (inactive); in the assay on Hs-578T, 23.6 µM (inactive); with HL-60, 36 µM (inactive); in the assay with MDA-MB-231, 28.5 µM (inactive); in the assay with RXF 393, 43.5 µM (inactive). Also, the GI50 is 49.7 µM (inactive) in the assay on SF-295; 34.1 µM (inactive) with DU-145; 15.5 µM (inactive) in the assay on A498; 42.8 µM (inactive) with MOLT-4; 40.6 µM (inactive) in the assay on KM12; > 100 µM (inactive) with NCI-H226. Further, the GI50 in the assay on OVCAR-5 is 68.7 µM (inactive); in the assay with UACC-257, 87.3 µM (inactive); in the assay on HCC 2998, 25.1 µM (inactive); in the assay with ACHN, 32 µM (inactive); in the assay with T47D, 63.7 µM (inactive); with RPMI-8226 it was 40.2 µM (inactive). The values for the GI50 in the assay on U-251 and with SF-539 were 20.3 µM (inactive) and 20.6 µM (inactive), respectively.

On to `C/C(Nc1ccc(Cl)cc1Cl)=C1/CCOC1=O`, for which the GI50 in the assay with K562 was > 100 µM (inactive); with SNB-19 it was 26.2 µM (inactive); with Hs-578T, 33.6 µM (inactive); with HL-60, 56.5 µM (inactive); with MDA-MB-231, 19.9 µM (inactive); with RXF 393, 13.5 µM (inactive). The GI50 with SF-295 is 26.6 µM (inactive); in the assay with DU-145 it was > 100 µM (inactive); in the assay on A498 it was 59.8 µM (inactive); in the assay with MOLT-4 it was 87.3 µM (inactive); in the assay with KM12, > 100 µM (inactive); in the assay with NCI-H226, > 100 µM (inactive). Also, the GI50 is > 100 µM (inactive) with UACC-257; > 100 µM (inactive) in the assay on HCC 2998; 92.9 µM (inactive) with ACHN; 46.5 µM (inactive) with T47D; > 100 µM (inactive) with RPMI-8226; 27.2 µM (inactive) in the assay with U-251. In addition, the GI50 in the assay on SF-539 is 25.7 µM (inactive).

With `OCCC/N=C1N=C(Cl)/C(=C\c2ccccc2)N\1`, the GI50 in the assay on K562, in the assay with SNB-19, in the assay on Hs-578T, with HL-60, in the assay on MDA-MB-231 and in the assay on RXF 393 was > 100 µM (inactive) in each case. Moreover, the GI50 with SF-295, in the assay on DU-145, in the assay on A498, in the assay with MOLT-4, in the assay with KM12 and in the assay on NCI-H226 was > 100 µM (inactive) in each case. Moreover, the GI50 in the assay on OVCAR-5, in the assay on UACC-257, in the assay on HCC 2998, with ACHN, in the assay with T47D and in the assay on RPMI-8226 was > 100 µM (inactive) in each case. The GI50 with U-251 and in the assay on SF-539 was > 100 µM (inactive) in each case.

For the compound `CCC1CC(C)C(O)/C=C/C=C/CC(C)OC(=O)CC(O)C(OC)C1OC1OC(C)CC(O)(C(C)=O)C1O` (stereo not given), the GI50 was 19.3 µM (inactive) in the assay on SNB-19; 19.7 µM (inactive) in the assay on Hs-578T; 21.8 µM (inactive) in the assay on HL-60; 16 µM (inactive) with MDA-MB-231; 44.7 µM (inactive) in the assay on RXF 393; > 100 µM (inactive) in the assay with SF-295. Further, the GI50 is 96.6 µM (inactive) in the assay with DU-145; 77.4 µM (inactive) with A498; 21.7 µM (inactive) in the assay on MOLT-4; 35.2 µM (inactive) with KM12; 47.6 µM (inactive) in the assay with NCI-H226; > 100 µM (inactive) in the assay on OVCAR-5. Moreover, the GI50 with UACC-257 is 37.9 µM (inactive); in the assay with HCC 2998 it was 21.7 µM (inactive); in the assay with ACHN it was 49.5 µM (inactive); in the assay with T47D, 51.4 µM (inactive); with RPMI-8226 it was 48.8 µM (inactive); in the assay on U-251 it was 60.4 µM (inactive). Also, the GI50 in the assay on SF-539 was 78.9 µM (inactive).

In the case of `COc1ccc(/C=C2\N=C(c3ccccc3)N(NC3=NC(=O)CC(=O)N3)C2=O)cc1`, the GI50 in the assay with K562, in the assay on SNB-19, in the assay with Hs-578T, in the assay with HL-60, in the assay on MDA-MB-231 and with RXF 393 was > 100 µM (inactive) in each case. The GI50 in the assay on DU-145, in the assay with A498, in the assay on MOLT-4, in the assay with KM12, in the assay on NCI-H226 and with OVCAR-5 was > 100 µM (inactive) each time. Moreover, the GI50 in the assay with UACC-257, in the assay with HCC 2998, in the assay with ACHN, in the assay on T47D, in the assay with RPMI-8226 and in the assay with U-251 was > 100 µM (inactive) each time. For the same compound, the GI50 with SF-539 is > 100 µM (inactive).

`CN(C)c1ccc(-c2ccc(N(C)C)c3n[se]nc23)c2n[se]nc12`: the GI50 with K562 is > 100 µM (inactive); in the assay with Hs-578T, 88.1 µM (inactive); in the assay with HL-60, > 100 µM (inactive); in the assay with MDA-MB-231, > 100 µM (inactive); in the assay on RXF 393, > 100 µM (inactive); in the assay on SF-295 it was > 100 µM (inactive). The GI50 with DU-145, with A498, in the assay on MOLT-4, in the assay with KM12, in the assay on NCI-H226 and with OVCAR-5 was > 100 µM (inactive) throughout. Moreover, the GI50 with UACC-257, in the assay with HCC 2998, in the assay on ACHN, in the assay on T47D, in the assay on RPMI-8226 and in the assay with U-251 was > 100 µM (inactive) in each case. Also, the GI50 in the assay on SF-539 was > 100 µM (inactive).

In the case of `CO[C@H]1[C@@H](O)[C@@H](C)O[C@@H](O[C@H]2CC[C@@]3(C)[C@H](CC[C@@H]4[C@@H]3CC[C@]3(C)[C@@H](C5=CC(=O)OC5)CC[C@]43O)C2)[C@@H]1O` [ODOROSIDE H], the GI50 in the assay on SNB-19 is 0.0215 µM (active); with Hs-578T, 0.00454 µM (active); with HL-60, 0.00378 µM (active); in the assay with MDA-MB-231, 0.0413 µM (active); in the assay with RXF 393 it was 0.00394 µM (active); with SF-295, 0.00516 µM (active). The GI50 with DU-145 is 0.00377 µM (active); with A498 it was 0.0787 µM (active); with MOLT-4 it was < 0.0025 µM (active); in the assay on KM12, 0.0112 µM (active); in the assay on NCI-H226, 0.0488 µM (active); in the assay with OVCAR-5, 0.0321 µM (active). Besides, the GI50 is 0.0109 µM (active) in the assay with UACC-257; 0.0149 µM (active) with HCC 2998; 0.00304 µM (active) in the assay on ACHN; 0.0333 µM (active) in the assay with T47D; 0.0111 µM (active) in the assay on RPMI-8226; 0.00836 µM (active) in the assay on U-251. Moreover, the GI50 in the assay with SF-539 is 0.00468 µM (active).

The record behind these values is ChEMBL document CHEMBL1201862, “PubChem BioAssay data set” (2004).
